From US20060287257A1, “Pharmaceutical compositions to treat diseases caused by mycobacterium” (priority 2005, published 2006)

tested on: Mycobacterium tuberculosis strain H37Rv; test: Screen against Mycobacterium tuberculosis strain H37Rv by serial dilution; type: cell-based; settings: M. tuberculosis H37Rv
Text: All of the compounds were screened against Mycobacterium tuberculosis strain H37Rv by serial dilution. The minimum inhibitory concentration and degree of inhibition is presented.

Row | Compound | % Inhibition (degree of inhibition) | MIC (minimum inhibitory concentration)
1 | Isoniazide dodecyl benzene sulfonate [Compound 2] | 99% | 0.78 mg/L
2 | chlorhexidine beta cyclodextrin sulfobutyl ether [Compound 8] | 94% | 3.13 mg/L
3 | N=C(NCCCCCCNC(=N)NC(=N)Nc1ccc(Cl)cc1)NC(=N)Nc1ccc(Cl)cc1.Oc1ccccc1-c1ccccc1.Oc1ccccc1-c1ccccc1 [Compound 9, chlorhexidine di-ortho phenyl phenol] | 99% | 3.13 mg/L
4 | CCCCCCCCCCCC(=O)O.NC(=NCCCCCCN=C(N)N=C(N)Nc1ccc(Cl)cc1)N=C(N)Nc1ccc(Cl)cc1 [Compound 6, chlorhexidine dilaurate] | 99% | 3.13 mg/L
5 | N-cocoylamide-L-argimine ethyl ester triclosanate [Compound 3] | 94% | 1.56 mg/L
6 | CCCCCCCCCCCCCCCCCC(=O)O.CCCCCCCCCCCCCCCCCC(=O)O.N=C(NCCCCCCNC(=N)NC(=N)Nc1ccc(Cl)cc1)NC(=N)Nc1ccc(Cl)cc1 [Compound 11, chlorhexidine distearate] | 99% | 3.13 mg/L
7 | N=C(NCCCCCCNC(=N)NC(N)=Nc1ccc(Cl)cc1)NC(N)=Nc1ccc(Cl)cc1.NCCCC(O)(P(=O)(O)O)P(=O)(O)O.NCCCC(O)(P(=O)(O)O)P(=O)(O)O [Compound 7, chlorhexidine di [4-amino-1-hydroxybutylidene] bis-phosphonate] | 94% | 3.13 mg/L
8 | chlorhexidine dithymol [Compound 4] | 98% | 1.56 mg/L
9 | N=C(NCCCCCCNC(=N)NC(=N)Nc1ccc(Cl)cc1)NC(=N)Nc1ccc(Cl)cc1.Sc1nc2ccccc2s1.Sc1nc2ccccc2s1 [Compound 5, chlorhexidine di-2-mercaptobenzthiazole] | 90% | 1.56 mg/L
